This note sets out measurements from patent US20110218188A1, “SUBSTITUTED (PYRIDYL)-AZINYLAMINE DERIVATIVES AS FUNGICIDES” (priority 2008, published 2011).

Marks after values point to notes of the source that are not given here.

The logP is a log measure of how a compound divides between an organic and an aqueous phase. In general, chromatographic logP refers to lipophilicity estimated from chromatographic retention. High values mean higher lipophilicity, low ones lower lipophilicity.

One data set in a line: Measurement of logP values by HPLC on reversed phase columns (EEC directive 79/831 Annex V.A8). The class given is physicochemical. Conditions: pH 2.7.
For the molecule `CN(C)C(=O)c1cc(-c2ncnc(Nc3ccc(F)c(C(F)F)c3)n2)ccn1` [Example B393], the logP is reported as 2.25.

Molecule `CCN(C)C(=O)c1cc(-c2ncnc(Nc3ccc(F)c(C(F)F)c3)n2)ccn1` [Example B394] showed a logP of 2.55.

Regarding `CC(C)CN(C)C(=O)c1cc(-c2ncnc(Nc3ccc(F)c(C(F)F)c3)n2)ccn1` [Example B395], the log partition coefficient (logP) is on record as 3.15.

Turning to `CC(C)N(C)C(=O)c1cc(-c2ncnc(Nc3ccc(F)c(C(F)F)c3)n2)ccn1` [Example B396], the logP came out at 2.78.

As to `CN(CCC#N)C(=O)c1cc(-c2ncnc(Nc3ccc(F)c(C(F)F)c3)n2)ccn1` [Example B397], the log partition coefficient (logP) is listed as 2.37.

The molecule `CN(CC(F)F)C(=O)c1cc(-c2ncnc(Nc3ccc(F)c(C(F)F)c3)n2)ccn1` [Example B398] displayed a lipophilicity (logP) of 2.84.

Molecule `CCCN(C)C(=O)c1cc(-c2ncnc(Nc3ccc(F)c(C(F)F)c3)n2)ccn1` [Example B399] had a logP of 2.86.

As to `CCN(C)C(=O)c1cc(-c2ncnc(Nc3cccc(C(F)F)c3)n2)ccn1` [Example B400], the logP worked out at 2.44.

As for `COCC(=O)N(c1ccccc1)c1ncnc(-c2ccnc(C(=O)N(C)CC3CC3)c2)n1` [Example B401], the log partition coefficient (logP) came out at 2.37.

As for `C#CCN(c1ccccc1)c1ncnc(-c2ccnc(C(=O)N(C)CC3CC3)c2)n1` [Example B402, N-(cyclopropylmethyl)-N-methyl-4-{4-[phenyl(prop-2-yn-1-yl)amino]-1,3,5-triazin-2-yl}pyridine-2-carboxamide], the chromatographic logP was found to be 2.98.

`COc1ccc(Nc2ncnc(-c3ccnc(C(=O)N(C)CC4CC4)c3)n2)cn1` [Example C6]: the lipophilicity (logP) is given as 2.2.

On to `COc1ccc(Nc2ncnc(-c3ccnc(C(=O)N(C)C)c3)n2)cn1` [Example C8], for which the lipophilicity (logP) was 1.57.

In the case of `COc1ccc(Nc2ncnc(-c3ccnc(C(=O)N(C)CC(C)C)c3)n2)cn1` [Example C9], the log partition coefficient (logP) stood at 2.37.

Take `CCN(C)C(=O)c1cc(-c2ncnc(Nc3ccc(OC)nc3)n2)ccn1` [Example C10]: the log partition coefficient (logP) was determined as 1.82.

`CCCCN(CC)C(=O)c1cc(-c2ncnc(Nc3ccc(OC)nc3)n2)ccn1` [Example C11] displayed a logP of 2.78.

In turn, `CN(CCC#N)C(=O)c1cc(-c2ncnc(Nc3ccsc3)n2)ccn1` [Example C12] registered a logP of 1.89.

As to `CCN(CC)C(=O)c1cc(-c2ncnc(Nc3ccsc3)n2)ccn1` [Example C13], the log partition coefficient (logP) came to 2.44.

Consider `CCCN(C)C(=O)c1cc(-c2ncnc(Nc3ccsc3)n2)ccn1` [Example C14], for which the log partition coefficient (logP) amounted to 2.45.

In turn, `CN(CC1CC1)C(=O)c1cc(-c2ncnc(Nc3ccsc3)n2)ccn1` [Example C15] returned a lipophilicity (logP) of 2.53.

For `CC(C)CN(C)C(=O)c1cc(-c2ncnc(Nc3ccsc3)n2)ccn1` [Example C16], the log partition coefficient (logP) was 2.63.

`CCN(C)C(=O)c1cc(-c2ncnc(Nc3ccsc3)n2)ccn1` [Example C17]: the log partition coefficient (logP) came out at 2.13.

In turn, `CC(C)CN(C)C(=O)c1cc(-c2ncnc(Nc3ccncc3)n2)ccn1` [Example C18] returned a logP of 1.19.

In turn, `CN(C)C(=O)c1cc(-c2ncnc(Nc3ccsc3)n2)ccn1` [Example C19] yielded a log partition coefficient (logP) of 1.86.

`CC(C)N(C)C(=O)c1cc(-c2ncnc(Nc3ccsc3)n2)ccn1` [Example C20] gave a lipophilicity (logP) of 2.37.

With `CN(CC(F)F)C(=O)c1cc(-c2ncnc(Nc3ccsc3)n2)ccn1` [Example C21], the logP came out at 2.46.

Consider `CCN(CC)C(=S)c1cc(-c2ncnc(Nc3ccsc3)n2)ccn1` [Example C22], for which the logP is 3.02.

As for `CCN(C)C(=S)c1cc(-c2ncnc(Nc3ccsc3)n2)ccn1` [Example C23], the logP is 2.68.

For the molecule `COC(=O)c1cc(-c2ncnc(Nc3ccsc3)n2)ccn1` [Example C24, methyl 4-[4-(3-thienylamino)-1,3,5-triazin-2-yl]pyridine-2-carboxylate], the chromatographic logP came out at 2.23.

Take `COC(=O)c1cc(-c2ncnc(Nc3ccnc(Cl)c3)n2)ccn1` [Example C25]: the log partition coefficient (logP) is given as 2.02.

`O=C(O)c1cc(-c2ncnc(Nc3ccsc3)n2)ccn1` [Example C28, 4-[4-(3-thienylamino)-1,3,5-triazin-2-yl]pyridine-2-carboxylic acid]: the chromatographic logP was 1.62.

In turn, `CC(=O)N(c1ccsc1)c1ncnc(-c2ccnc(C(=O)N(C)CCC#N)c2)n1` [Example C29] showed a logP of 1.78.

Molecule `CON(C)C(=O)c1cc(-c2ncnc(Nc3ccsc3)n2)ccn1` [Example C30, N-methoxy-N-methyl-4-[4-(3-thienylamino)-1,3,5-triazin-2-yl]pyridine-2-carboxamide] yielded a chromatographic logP of 2.05.

`CCON(CC)C(=O)c1cc(-c2ncnc(Nc3ccsc3)n2)ccn1` [Example C31]: the log partition coefficient (logP) turned out to be 2.59.

With `CCON(C)C(=O)c1cc(-c2ncnc(Nc3ccsc3)n2)ccn1` [Example C33], the logP is recorded as 2.26.

The same data set, now with this note: pH 7.8.
Turning to `COc1ccc(Nc2ncnc(-c3ccnc(C(=O)N4CCCC4)c3)n2)cn1` [Example C1], the logP was 1.99^[c].

Molecule `COc1ccc(Nc2ncnc(-c3ccnc(C(=O)N4CCCCC4)c3)n2)cn1` [Example C2, (4-{4-[(6-methoxypyridin-3-yl)amino]-1,3,5-triazin-2-yl}pyridin-2-yl)(piperidin-1-yl)methanone] yielded a chromatographic logP of 2.14.

Turning to `CCCN(CCC)C(=O)c1cc(-c2ncnc(Nc3ccc(OC)nc3)n2)ccn1` [Example C3], the lipophilicity (logP) is 2.77^[c].

As for `CCN(CC)C(=O)c1cc(-c2ncnc(Nc3ccc(OC)nc3)n2)ccn1` [Example C4], the log partition coefficient (logP) was 2.11^[c].

For the molecule `CCCN(C)C(=O)c1cc(-c2ncnc(Nc3ccc(OC)nc3)n2)ccn1` [Example C5], the logP was 2.11^[c].

Take `C=CCN(CC=C)C(=O)c1cc(-c2ncnc(Nc3ccc(OC)nc3)n2)ccn1` [Example C7]: the logP was 2.58^[c].

For the molecule `CCN(OC)C(=O)c1cc(-c2ncnc(Nc3ccsc3)n2)ccn1` [Example C32], the logP was 2.33^[c].
